Patent publication US20240261224A1, “FORMULATION OF A PAN-JAK INHIBITOR” (KINASET THERAPEUTICS, INC., priority 2022, published 2024)
Where two headings read alike, the source gives them in different places.

Experiment: Phase 1 Part 2 plasma pharmacokinetics (mild asthma)
Assay type: in vivo, human
Settings: for AUC0-12 hours Max / AUC0-12 hours Min / AUC0-24 hours Max / AUC0-24 hours Min / AUC0-last non-zero Max / AUC0-last non-zero Min / AUC0-∞ Max / AUC0-∞ Min / AUCover dosing interval Max / AUCover dosing interval Min / Cmax Max / Cmax Min / Ctrough Geometric mean / Ctrough Max / Ctrough Mean / Ctrough Min: Day 10; for AUC0-12h / AUC(0-t) / AUC(0-inf) / AUC / Cmax: human, plasma, inhaled
Source text: Day 10 pharmacokinetic parameters for Parts 2 and 3 of Phase I are summarized below in Table 28. Part 2 involved the administration of 4 different dose regimens, to subjects with mild asthma naïve to ICS therapy, over a 10-day period. Each separate cohort comprised 6 subjects receiving active treatment with 2 receiving matching placebo. Blood samples were collected to enable the measurement of Compound I concentrations in plasma. The resultant data was used to determine the PK parameters at Day 10 representing the Day on which the final dose was received.

Cn1c(=O)n([C@H]2CCCN(C(=O)CC#N)C2)c2nc(-c3cnn4ccccc34)ccc21 [Compound I, (S)-3-(3-(1-methyl-2-oxo-5-(pyrazolo[1,5-a]pyridine-3-yl)-1H-imidazo[4,5-b]pyridine-3(2H)-yl)piperidin-1-yl)-3-oxopropanenitrile]
AUC0-12 hours Max (0.6 mg QD): 23,507 pg · h/ml | AUC0-12 hours Min (0.6 mg QD): 7,596 pg · h/ml | AUC0-24 hours Max (0.6 mg QD): 36,466 pg · h/ml | AUC0-24 hours Min (0.6 mg QD): 8,579 pg · h/ml | AUC0-last non-zero Max (0.6 mg QD): 47,928 pg · h/ml | AUC0-last non-zero Min (0.6 mg QD): 8,579 pg · h/ml | AUC0-∞ Max (0.6 mg QD): 52,842 pg · h/ml | AUC0-∞ Min (0.6 mg QD): 8,783 pg · h/ml | AUCover dosing interval Max (0.6 mg QD): 36,466 pg · h/ml | AUCover dosing interval Min (0.6 mg QD): 8,579 pg · h/ml | Cmax Max (0.6 mg QD): 2,750 pg/ml | Cmax Min (0.6 mg QD): 1,020 pg/ml | Ctrough Geometric mean (0.6 mg QD): 234 pg/mL | Ctrough Max (0.6 mg QD): 913 pg/mL | Ctrough Mean (0.6 mg QD): 362 pg/mL | Ctrough Min (0.6 mg QD): 34 pg/mL | AUC0-12 hours Max (2 mg QD): 88,203 pg · h/ml | AUC0-12 hours Min (2 mg QD): 30,807 pg · h/ml | AUC0-24 hours Max (2 mg QD): 125,837 pg · h/ml | AUC0-24 hours Min (2 mg QD): 42,693 pg · h/ml | AUC0-last non-zero Max (2 mg QD): 143,585 pg · h/ml | AUC0-last non-zero Min (2 mg QD): 48,931 pg · h/ml | AUC0-∞ Max (2 mg QD): 145,552 pg · h/ml | AUC0-∞ Min (2 mg QD): 50,025 pg · h/ml | AUCover dosing interval Max (2 mg QD): 125,837 pg · h/ml | AUCover dosing interval Min (2 mg QD): 42,693 pg · h/ml | Cmax Max (2 mg QD): 9,630 pg/ml | Cmax Min (2 mg QD): 4,160 pg/ml | Ctrough Geometric mean (2 mg QD): 929 pg/mL | Ctrough Max (2 mg QD): 1,370 pg/ml | Ctrough Mean (2 mg QD): 970 pg/mL | Ctrough Min (2 mg QD): 536 pg/mL | AUC0-12 hours Max (4 mg BID): 373,995 pg · h/ml | AUC0-12 hours Min (4 mg BID): 39,111 pg · h/ml | AUC0-24 hours Max (4 mg BID): 473,634 pg · h/ml | AUC0-24 hours Min (4 mg BID): 43,350 pg · h/ml | AUC0-last non-zero Max (4 mg BID): 586,513 pg · h/ml | AUC0-last non-zero Min (4 mg BID): 43,356 pg · h/ml | AUC0-∞ Max (4 mg BID): 587,424 pg · h/ml | AUC0-∞ Min (4 mg BID): 44,654 pg · h/ml | AUCover dosing interval Max (4 mg BID): 373,995 pg · h/ml | AUCover dosing interval Min (4 mg BID): 39,111 pg · h/ml | Cmax Max (4 mg BID): 47,800 pg/ml | Cmax Min (4 mg BID): 7,750 pg/ml | Ctrough Geometric mean (4 mg BID): 6,983 pg/ml | Ctrough Max (4 mg BID): 15,600 pg/ml | Ctrough Mean (4 mg BID): 10,001 pg/ml | Ctrough Min (4 mg BID): 563 pg/mL | AUC0-12 hours Max (8 mg BID): 830,085 pg · h/ml | AUC0-12 hours Min (8 mg BID): 260,305 pg · h/ml | AUC0-24 hours Max (8 mg BID): 1,140,247 pg · h/ml | AUC0-24 hours Min (8 mg BID): 309,050 pg · h/ml | AUC0-last non-zero Max (8 mg BID): 1,369,314 pg · h/ml | AUC0-last non-zero Min (8 mg BID): 358,137 pg · h/ml | AUC0-∞ Max (8 mg BID): 1,369,630 pg · h/ml | AUC0-∞ Min (8 mg BID): 358,998 pg · h/ml | AUCover dosing interval Max (8 mg BID): 830,085 pg · h/ml | AUCover dosing interval Min (8 mg BID): 260,305 pg · h/ml | Cmax Max (8 mg BID): 91,500 pg/ml | Cmax Min (8 mg BID): 45,400 pg/ml | Ctrough Geometric mean (8 mg BID): 17,666 pg/ml | Ctrough Max (8 mg BID): 40,600 pg/ml | Ctrough Mean (8 mg BID): 21,835 pg/ml | Ctrough Min (8 mg BID): 6,090 pg/ml | AUC0-12h (0.6 mg, 0.6 mg QD, Day 10, read-out: AUC0-12 hours Geometric mean): 14.9 ng·h/mL | AUC0-12h (0.6 mg, 0.6 mg QD, Day 10, read-out: AUC0-12 hours Mean): 16.1 ng·h/mL | AUC(0-t) (0.6 mg, 0.6 mg QD, Day 10, read-out: AUC0-24 hours Geometric mean): 20.3 ng·h/mL | AUC(0-t) (0.6 mg, 0.6 mg QD, Day 10, read-out: AUC0-24 hours Mean): 22.5 ng·h/mL | AUC(0-t) (0.6 mg, 0.6 mg QD, Day 10, read-out: AUC0-last non-zero Geometric mean): 23.4 ng·h/mL | AUC(0-t) (0.6 mg, 0.6 mg QD, Day 10, read-out: AUC0-last non-zero Mean): 26.7 ng·h/mL | AUC(0-inf) (0.6 mg, 0.6 mg QD, Day 10, read-out: AUC0-∞ Geometric mean): 24.3 ng·h/mL | AUC(0-inf) (0.6 mg, 0.6 mg QD, Day 10, read-out: AUC0-∞ Mean): 28 ng·h/mL | AUC (0.6 mg, 0.6 mg QD, Day 10, read-out: AUCover dosing interval Geometric mean): 20.3 ng·h/mL | AUC (0.6 mg, 0.6 mg QD, Day 10, read-out: AUCover dosing interval Mean): 22.5 ng·h/mL | Cmax (0.6 mg, 0.6 mg QD, Day 10, read-out: Cmax Geometric mean): 1.86 ng/mL | Cmax (0.6 mg, 0.6 mg QD, Day 10, read-out: Cmax Mean): 1.97 ng/mL | AUC0-12h (2 mg, 2 mg QD, Day 10, read-out: AUC0-12 hours Geometric mean): 51.9 ng·h/mL | AUC0-12h (2 mg, 2 mg QD, Day 10, read-out: AUC0-12 hours Mean): 55.2 ng·h/mL | AUC(0-t) (2 mg, 2 mg QD, Day 10, read-out: AUC0-24 hours Geometric mean): 71.9 ng·h/mL | AUC(0-t) (2 mg, 2 mg QD, Day 10, read-out: AUC0-24 hours Mean): 76.4 ng·h/mL | AUC(0-t) (2 mg, 2 mg QD, Day 10, read-out: AUC0-last non-zero Geometric mean): 82.2 ng·h/mL | AUC(0-t) (2 mg, 2 mg QD, Day 10, read-out: AUC0-last non-zero Mean): 87.4 ng·h/mL | AUC(0-inf) (2 mg, 2 mg QD, Day 10, read-out: AUC0-∞ Geometric mean): 83.9 ng·h/mL | AUC(0-inf) (2 mg, 2 mg QD, Day 10, read-out: AUC0-∞ Mean): 89.2 ng·h/mL | AUC (2 mg, 2 mg QD, Day 10, read-out: AUCover dosing interval Geometric mean): 71.9 ng·h/mL | AUC (2 mg, 2 mg QD, Day 10, read-out: AUCover dosing interval Mean): 76.4 ng·h/mL | Cmax (2 mg, 2 mg QD, Day 10, read-out: Cmax Geometric mean): 6.19 ng/mL | Cmax (2 mg, 2 mg QD, Day 10, read-out: Cmax Mean): 6.46 ng/mL | AUC0-12h (4 mg, 4 mg BID, Day 10, read-out: AUC0-12 hours Geometric mean): 194 ng·h/mL | AUC0-12h (4 mg, 4 mg BID, Day 10, read-out: AUC0-12 hours Mean): 237 ng·h/mL | AUC(0-t) (4 mg, 4 mg BID, Day 10, read-out: AUC0-24 hours Geometric mean): 241 ng·h/mL | AUC(0-t) (4 mg, 4 mg BID, Day 10, read-out: AUC0-24 hours Mean): 299 ng·h/mL | AUC(0-t) (4 mg, 4 mg BID, Day 10, read-out: AUC0-last non-zero Geometric mean): 278 ng·h/mL | AUC(0-t) (4 mg, 4 mg BID, Day 10, read-out: AUC0-last non-zero Mean): 355 ng·h/mL | AUC(0-inf) (4 mg, 4 mg BID, Day 10, read-out: AUC0-∞ Geometric mean): 282 ng·h/mL | AUC(0-inf) (4 mg, 4 mg BID, Day 10, read-out: AUC0-∞ Mean): 359 ng·h/mL | AUC (4 mg, 4 mg BID, Day 10, read-out: AUCover dosing interval Geometric mean): 194 ng·h/mL | AUC (4 mg, 4 mg BID, Day 10, read-out: AUCover dosing interval Mean): 237 ng·h/mL | Cmax (4 mg, 4 mg BID, Day 10, read-out: Cmax Geometric mean): 26.8 ng/mL | Cmax (4 mg, 4 mg BID, Day 10, read-out: Cmax Mean): 31.5 ng/mL | AUC0-12h (8 mg, 8 mg BID, Day 10, read-out: AUC0-12 hours Geometric mean): 418 ng·h/mL | AUC0-12h (8 mg, 8 mg BID, Day 10, read-out: AUC0-12 hours Mean): 458 ng·h/mL | AUC(0-t) (8 mg, 8 mg BID, Day 10, read-out: AUC0-24 hours Geometric mean): 545 ng·h/mL | AUC(0-t) (8 mg, 8 mg BID, Day 10, read-out: AUC0-24 hours Mean): 612 ng·h/mL | AUC(0-t) (8 mg, 8 mg BID, Day 10, read-out: AUC0-last non-zero Geometric mean): 662 ng·h/mL | AUC(0-t) (8 mg, 8 mg BID, Day 10, read-out: AUC0-last non-zero Mean): 745 ng·h/mL | AUC(0-inf) (8 mg, 8 mg BID, Day 10, read-out: AUC0-∞ Geometric mean): 664 ng·h/mL | AUC(0-inf) (8 mg, 8 mg BID, Day 10, read-out: AUC0-∞ Mean): 747 ng·h/mL | AUC (8 mg, 8 mg BID, Day 10, read-out: AUCover dosing interval Geometric mean): 418 ng·h/mL | AUC (8 mg, 8 mg BID, Day 10, read-out: AUCover dosing interval Mean): 458 ng·h/mL | Cmax (8 mg, 8 mg BID, Day 10, read-out: Cmax Geometric mean): 57.7 ng/mL | Cmax (8 mg, 8 mg BID, Day 10, read-out: Cmax Mean): 60.4 ng/mL
